# Structures can show the parent of a compound that is named as a salt. Where two headings read alike, the source gives them in different places.
# Assays:
# Assay type in all cases: cell-based
# HTT mRNA [1] = test: Splicing RT-qPCR assay (THP), Table 2A
# MYB mRNA [2] = test: Splicing RT-qPCR assay (THP), Table 2A
# HTT mRNA [3] = test: Gene panel canonical junction qPCR assay, decrease in CJ mRNA, Table 3
# How it was run: (§1)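 Eleven-point dose responses from 10 uM final, 24 h, DMSO ≤0.25%, in A673 or K562 cells. Relative quantification by 2^(−ΔΔCt) against housekeeper and vehicle was converted to percent response over fixed ΔCt windows and fitted to yield IC50.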
# MYB mRNA [4] = test: as above
# How it was run: as §1
# [5] = system: SH-SY5Y (human neuroblastoma) cells; test: Cell viability, Cell Titer Glo 2.0 assay; conditions: read-out: Viability SHSY5Y.3 GI50
# How it was run: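 Following a 72 h incubation (37 °C, 5% CO2, 0.1% DMSO final), compound toxicity toward SH-SY5Y cells was quantified by CellTiter-Glo 2.0.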
# [6] = Table 2A (THP), AJ mRNA increase, read-out: HTT AJ (increase in alternative junction mRNA, AC50)
# [7] = Table 2A (THP), CJ mRNA decrease, read-out: HTT CJ (decrease in canonical junction mRNA, IC50)
# [8] = Table 2A (THP), AJ mRNA increase, read-out: MYB AJ (increase in alternative junction mRNA, AC50)
# [9] = Table 2A (THP), CJ mRNA decrease, read-out: MYB CJ (decrease in canonical junction mRNA, IC50)
# [10] = decrease in canonical junction (CJ) mRNA, gene panel qPCR, Table 3
# [11] = Table 2A, THP, HTT alternative junction (AJ) mRNA, read-out: HTT AJ (AC50, increase in alternative junction mRNA)
# [12] = Table 2A, THP, HTT canonical junction (CJ) mRNA, read-out: HTT CJ (IC50, decrease in canonical junction mRNA)
# [13] = Table 2A, THP, MYB alternative junction (AJ) mRNA, read-out: MYB AJ (AC50, increase in alternative junction mRNA)
# [14] = Table 2A, THP, MYB canonical junction (CJ) mRNA, read-out: MYB CJ (IC50, decrease in canonical junction mRNA)
# [15] = decrease in CJ mRNA levels, canonical junction qPCR, gene panel
IC50 (HTT mRNA [1]; [7]),IC50 (MYB mRNA [2]; [9]),IC50 (HTT mRNA [3]; [10]),IC50 (MYB mRNA [4]; [10]),GI50 [5],IC50 (HTT mRNA [1]; [12]),IC50 (MYB mRNA [2]; [14]),IC50 (HTT mRNA [3]; [15]),IC50 (MYB mRNA [4]; [15]),Compound,AC50 (HTT mRNA [1]; [6]),AC50 (MYB mRNA [2]; [8]),AC50 (HTT mRNA [1]; [11]),AC50 (MYB mRNA [2]; [13])
> 10000 nM,> 10000 nM,> 10000 nM,> 10000 nM,100 to 1000 nM,,,,,"Cc1cc2cc(NC(=O)c3ccc(N4CCC(NC5CC5)CC4)c4cn(C)nc34)sc2c(C)n1 [Compound 483, 4-[4-(cyclopropyl-amino)-1-piperidyl]-N-(5,7-dimethyl-thieno[2,3-c]-pyridin-2-yl)-2-methyl-indazole-7-carboxamide]",> 10000 nM,> 10000 nM,,
> 10000 nM,> 10000 nM,> 10000 nM,> 10000 nM,> 10000 nM,,,,,"Cn1cc2cc(NC(=O)c3c(F)cc(N4CCC(NC5CC5)CC4)c4cn(C)nc34)c(Cl)cc2n1 [Compound 439, N-(6-chloro-2-methyl-indazol-5-yl)-4-[4-(cyclopropylamino)-1-piperidyl]-6-fluoro-2-methyl-indazole-7-carboxamide]",> 10000 nM,> 10000 nM,,
,,,,1000 to 10000 nM,1000 to 10000 nM,1000 to 10000 nM,1000 to 10000 nM,1000 to 10000 nM,CNS(=O)(=O)CCc1nc(C)cn2cc(NC(=O)c3ccc(N4CCC(NC5CC5)CC4)c4cn(C)nc34)nc12 [Compound 832],,,1000 to 10000 nM,1000 to 10000 nM
,,,,> 10000 nM,> 10000 nM,1000 to 10000 nM,> 10000 nM,1000 to 10000 nM,Cc1cn2cc(NC(=O)c3ccc(N4CCC(NC5CC5)CC4)c4cn(C)nc34)nc2c(CCS(C)(=O)=O)n1 [Compound 702],,,> 10000 nM,1000 to 10000 nM
,,,,> 10000 nM,> 10000 nM,> 10000 nM,> 10000 nM,> 10000 nM,"Cn1cc2cc(NC(=O)c3ccc(N4CCC(NC5CC5)CC4)c4cn(C)nc34)cc(CN3CCCS3(=O)=O)c2n1 [Compound 818, 4-(4-(cyclopropylamino)piperidin-1-yl)-N-(7-((1,1-dioxidoisothiazolidin-2-yl)methyl)-2-methyl-2H-indazol-5-yl)-2-methyl-2H-indazole-7-carboxamide hydrochloride]",,,> 10000 nM,> 10000 nM
1000 to 10000 nM,100 to 1000 nM,1000 to 10000 nM,100 to 1000 nM,1000 to 10000 nM,,,,,COc1cc2nn(C)cc2cc1NC(=O)c1ccc(N2CCC3NCCC3C2)c2cn(C)nc12 (stereo not shown) [Compound 543],1000 to 10000 nM,100 to 1000 nM,,

# The next lines start with the molecule.
Compound,IC50 (HTT mRNA [1]; [7]),IC50 (MYB mRNA [2]; [9]),IC50 (HTT mRNA [3]; [10]),IC50 (MYB mRNA [4]; [10]),GI50 [5],IC50 (HTT mRNA [1]; [12]),IC50 (MYB mRNA [2]; [14]),IC50 (HTT mRNA [3]; [15]),IC50 (MYB mRNA [4]; [15]),AC50 (HTT mRNA [1]; [6]),AC50 (MYB mRNA [2]; [8]),AC50 (HTT mRNA [1]; [11]),AC50 (MYB mRNA [2]; [13])
Cc1cn2cc(NC(=O)c3ccc(N(C)C4CCNCC4)c4cn(C)nc34)nc2c(C)n1 [Compound 564],100 to 1000 nM,100 to 1000 nM,100 to 1000 nM,100 to 1000 nM,100 to 1000 nM,,,,,100 to 1000 nM,100 to 1000 nM,,
"CCNC1CCN(c2cc(F)c(C(=O)Nc3cn4cc(C)nc4c(N)c3OC)c3nn(C)cc23)CC1 [Compound 364, N-(8-amino-7-methoxy-2-methyl-imidazo[1,2-a]-pyridin-6-yl)-4-[4-(ethylamino)-1-piperidyl]-6-fluoro-2-methyl-indazole-7-carboxamide]",1000 to 10000 nM,100 to 1000 nM,1000 to 10000 nM,< 100 nM,1000 to 10000 nM,,,,,100 to 1000 nM,< 100 nM,,
"COc1nc2c(C(=O)Nc3cn4cc(C)nc(C)c4n3)ccc(N3C[C@H](C)N[C@@H](C)C3)c2s1 [Compound 711, N-(6,8-dimethylimidazo[1,2-a]pyrazin-2-yl)-7-[(3S,5S)-3,5-dimethylpiperazin-1-yl]-2-methoxy-1,3-benzothiazole-4-carboxamide]",,,,,1000 to 10000 nM,> 10000 nM,1000 to 10000 nM,> 10000 nM,1000 to 10000 nM,,,> 10000 nM,1000 to 10000 nM
"CCNC1CCN(c2cc(F)c(C(=O)Nc3cn4cc(C)nc4c(Cl)c3OC)c3nn(C)cc23)CC1 [Compound 357, N-(8-chloro-7-methoxy-2-methylimidazo[1,2-a]pyridin-6-yl)-4-[4-(ethylamino)-1-piperidyl]-6-fluoro-2-methyl-indazole-7-carboxamide]",100 to 1000 nM,< 100 nM,100 to 1000 nM,< 100 nM,100 to 1000 nM,,,,,100 to 1000 nM,< 100 nM,,
